Experimental data from PubChem BioAssay AID1918991 (Molecular Pharmacology Branch, DTP, NCI, 2023).

Tested on: 186277-243-T-J2-PDC complex spheroid growth
Assay: Anticancer human tumor 186277-243-T-J2-PDC patient-derived colon adenocarcinoma cell line growth inhibition [AhR]
Conditions: for IC50: curve of first compound; for viability, T/C: stronger effect = lower value
How it was run: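 Agents were dosed in half-log steps down from roughly clinical Cmax, or from 10 microM where Cmax was unknown, alone and with AhR antagonists. Read-out: percent test/control growth of tumor spheroids containing HUVEC and MSC stromal cells.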

[1] = second compound 0.1 µM, first compound 0.00316 µM
[2] = second compound 0.1 µM, first compound 0.01 µM
[3] = second compound 0.1 µM, first compound 0.0316 µM
[4] = second compound 0.1 µM, first compound 0.1 µM
[5] = second compound 0.316 µM, first compound 0.00316 µM
[6] = second compound 0.316 µM, first compound 0.01 µM
[7] = second compound 0.316 µM, first compound 0.0316 µM
[8] = second compound 0.316 µM, first compound 0.1 µM
[9] = second compound 1 µM, first compound 0.00316 µM
[10] = second compound 1 µM, first compound 0.01 µM
[11] = second compound 1 µM, first compound 0.0316 µM
[12] = second compound 1 µM, first compound 0.1 µM
[13] = second compound 3.16 µM, first compound 0.00316 µM
[14] = second compound 3.16 µM, first compound 0.01 µM
[15] = second compound 3.16 µM, first compound 0.0316 µM
[16] = second compound 3.16 µM, first compound 0.1 µM
[17] = second compound 10 µM, first compound 0.00316 µM
[18] = second compound 10 µM, first compound 0.01 µM
[19] = second compound 10 µM, first compound 0.0316 µM
[20] = second compound 10 µM, first compound 0.1 µM
[21] = second compound 0.1 µM, first compound 0.316 µM
[22] = second compound 0.1 µM, first compound 1 µM
[23] = second compound 0.1 µM, first compound 3.16 µM
[24] = second compound 0.1 µM, first compound 10 µM
[25] = second compound 0.316 µM, first compound 0.316 µM
[26] = second compound 0.316 µM, first compound 1 µM
[27] = second compound 0.316 µM, first compound 3.16 µM
[28] = second compound 0.316 µM, first compound 10 µM
[29] = second compound 1 µM, first compound 0.316 µM
[30] = second compound 1 µM, first compound 1 µM
[31] = second compound 1 µM, first compound 3.16 µM
[32] = second compound 1 µM, first compound 10 µM
[33] = second compound 3.16 µM, first compound 0.316 µM
[34] = second compound 3.16 µM, first compound 1 µM
[35] = second compound 3.16 µM, first compound 3.16 µM
[36] = second compound 3.16 µM, first compound 10 µM
[37] = second compound 10 µM, first compound 0.316 µM
[38] = second compound 10 µM, first compound 1 µM
[39] = second compound 10 µM, first compound 3.16 µM
[40] = second compound 10 µM, first compound 10 µM
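Also: spheroids exposed to compounds for seven days before the viability read.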
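For viability, T/C in this document: luminescent signal used as a stand-in for viable cell amount; 100% = DMSO vehicle control wells.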

CC[C@@]1(O)C(=O)OCc2c1cc1n(c2=O)Cc2cc3c(CN(C)C)c(O)ccc3nc2-1 + Cc1ccccc1N=Nc1ccc(NC(=O)c2ccnn2C)c(C)c1
IC50 (second compound 0.1 µM): > 100 nM | IC50 (second compound 0.316 µM): > 100 nM | IC50 (second compound 1 µM): > 100 nM | IC50 (second compound 3.16 µM): > 100 nM | IC50 (second compound 10 µM): > 100 nM | viability, T/C (second compound 0.1 µM, first compound 0.000316 µM): 97.7% | viability, T/C (second compound 0.1 µM, first compound 0.001 µM): 113% | viability, T/C [1]: 107% | viability, T/C [2]: 133% | viability, T/C [3]: 119% | viability, T/C [4]: 113% | viability, T/C (second compound 0.316 µM, first compound 0.000316 µM): 113% | viability, T/C (second compound 0.316 µM, first compound 0.001 µM): 101% | viability, T/C [5]: 113% | viability, T/C [6]: 115% | viability, T/C [7]: 114% | viability, T/C [8]: 105% | viability, T/C (second compound 1 µM, first compound 0.000316 µM): 97.8% | viability, T/C (second compound 1 µM, first compound 0.001 µM): 103% | viability, T/C [9]: 110% | viability, T/C [10]: 123% | viability, T/C [11]: 116% | viability, T/C [12]: 119% | viability, T/C (second compound 3.16 µM, first compound 0.000316 µM): 94.9% | viability, T/C (second compound 3.16 µM, first compound 0.001 µM): 92.9% | viability, T/C [13]: 116% | viability, T/C [14]: 135% | viability, T/C [15]: 107% | viability, T/C [16]: 104% | viability, T/C (second compound 10 µM, first compound 0.000316 µM): 81.8% | viability, T/C (second compound 10 µM, first compound 0.001 µM): 92.2% | viability, T/C [17]: 98.1% | viability, T/C [18]: 117% | viability, T/C [19]: 90.5% | viability, T/C [20]: 99.3%

COc1cc(C2c3cc4c(cc3C(OC3OC5COC(C)OC5C(O)C3O)C3COC(=O)C23)OCO4)cc(OC)c1O (stereo not given) + Cc1ccccc1N=Nc1ccc(NC(=O)c2ccnn2C)c(C)c1
IC50 (second compound 0.1 µM): 8920 nM | IC50 (second compound 0.316 µM): 7740 nM | IC50 (second compound 1 µM): 7570 nM | IC50 (second compound 3.16 µM): 7220 nM | IC50 (second compound 10 µM): 7390 nM | viability, T/C [3]: 87.1% | viability, T/C [4]: 103% | viability, T/C [21]: 142% | viability, T/C [22]: 99.7% | viability, T/C [23]: 81% | viability, T/C [24]: 46.5% | viability, T/C [7]: 98.5% | viability, T/C [8]: 117% | viability, T/C [25]: 145% | viability, T/C [26]: 96.1% | viability, T/C [27]: 78.6% | viability, T/C [28]: 42% | viability, T/C [11]: 113% | viability, T/C [12]: 124% | viability, T/C [29]: 144% | viability, T/C [30]: 93.6% | viability, T/C [31]: 76.2% | viability, T/C [32]: 41.7% | viability, T/C [15]: 94.8% | viability, T/C [16]: 106% | viability, T/C [33]: 137% | viability, T/C [34]: 94.6% | viability, T/C [35]: 72.8% | viability, T/C [36]: 41.2% | viability, T/C [19]: 102% | viability, T/C [20]: 104% | viability, T/C [37]: 118% | viability, T/C [38]: 93.6% | viability, T/C [39]: 71.7% | viability, T/C [40]: 42.4%

COc1cccc2c1C(=O)c1c(O)c3c(c(O)c1C2=O)CC(O)(C(=O)CO)CC3OC1CC(N)C(O)C(C)O1 (stereo not given) + Cc1ccccc1N=Nc1ccc(NC(=O)c2ccnn2C)c(C)c1
IC50 (second compound 0.1 µM): 456 nM | IC50 (second compound 0.316 µM): 446 nM | IC50 (second compound 1 µM): 487 nM | IC50 (second compound 3.16 µM): 463 nM | IC50 (second compound 10 µM): 440 nM | viability, T/C [3]: 158% | viability, T/C [4]: 147% | viability, T/C [21]: 71% | viability, T/C [22]: 4.6% | viability, T/C [23]: 0.4% | viability, T/C [24]: 0.61% | viability, T/C [7]: 161% | viability, T/C [8]: 138% | viability, T/C [25]: 70% | viability, T/C [26]: 4.18% | viability, T/C [27]: 0.3% | viability, T/C [28]: 1.25% | viability, T/C [11]: 161% | viability, T/C [12]: 136% | viability, T/C [29]: 77.1% | viability, T/C [30]: 4.8% | viability, T/C [31]: 0.42% | viability, T/C [32]: 0.91% | viability, T/C [15]: 152% | viability, T/C [16]: 133% | viability, T/C [33]: 72.9% | viability, T/C [34]: 3.91% | viability, T/C [35]: 0.08% | viability, T/C [36]: 1.27% | viability, T/C [19]: 131% | viability, T/C [20]: 120% | viability, T/C [37]: 68.9% | viability, T/C [38]: 2.85% | viability, T/C [39]: 0.25% | viability, T/C [40]: 0.52%

Nc1ncn(C2CC(O)C(CO)O2)c(=O)n1 (stereo not given) + Cc1ccccc1N=Nc1ccc(NC(=O)c2ccnn2C)c(C)c1
IC50 (second compound 0.1 µM): > 1000 nM | IC50 (second compound 0.316 µM): > 1000 nM | IC50 (second compound 1 µM): > 1000 nM | IC50 (second compound 3.16 µM): > 1000 nM | IC50 (second compound 10 µM): > 1000 nM | viability, T/C [1]: 115% | viability, T/C [2]: 108% | viability, T/C [3]: 105% | viability, T/C [4]: 112% | viability, T/C [21]: 103% | viability, T/C [22]: 143% | viability, T/C [5]: 118% | viability, T/C [6]: 96.8% | viability, T/C [7]: 108% | viability, T/C [8]: 115% | viability, T/C [25]: 120% | viability, T/C [26]: 144% | viability, T/C [9]: 100% | viability, T/C [10]: 102% | viability, T/C [11]: 102% | viability, T/C [12]: 128% | viability, T/C [29]: 119% | viability, T/C [30]: 144% | viability, T/C [13]: 103% | viability, T/C [14]: 128% | viability, T/C [15]: 101% | viability, T/C [16]: 105% | viability, T/C [33]: 113% | viability, T/C [34]: 122% | viability, T/C [17]: 90.2% | viability, T/C [18]: 97.2% | viability, T/C [19]: 103% | viability, T/C [20]: 109% | viability, T/C [37]: 104% | viability, T/C [38]: 103%
